From PMC11960442, “In vitro activities of lipopeptides against fluconazole-resistant Candida auris” (Microbiology Spectrum, 2025)
Converted amounts (≈) assume the structure as drawn. Like-named read-outs stand apart in the source and are kept apart here. Non-standard residues stand in square brackets, D forms with d. Residues, ends and D or L forms follow the SMILES beside them. *: point of attachment. Myristoyl = CCCCCCCCCCCCCC(=O)*; Nle = CCCC[C@H](N)C(=O)O

Legend:
[1] = tested on: fluconazole-resistant C. auris isolates; assay: microbe, parasite or virus in culture; settings: Candidozyma auris, EUCAST broth microdilution, RPMI 1640 with 2% glucose
[2] = tested on: fluconazole-resistant C. auris isolates; settings: for MIC: EUCAST broth microdilution, RPMI 1640 with 2% glucose; for MIC values: the six C. auris isolates
[3] = tested on: C. auris isolates 728157, CAB-1, CAB-2; assay: Growth curves (OD450 nm every hour for 24 h); assay type: cell-based, Candida auris; settings: for growth: growth curve 24 h
Method: Growth Curves. The action of the peptides was assessed by growth curve measuring OD450 nm every hour for 24 h using peptides at different concentrations (0.5X, 1X, 2X MIC). […] Untreated isolates were used as control. All experiments were replicated at least three times.

[4] = tested on: C. auris; assay: Stability of compounds: MIC after pre-incubation of the peptides; assay type: cell-based, Candida auris; settings: peptides previously incubated for 24 and 48 hours at 37°C; no changes in MIC values
Method: Determination of MICs. […] The media used for this assay was RPMI 1640 with 2% of glucose and the concentration of antifungal and peptides tested ranged from 128 to 0.25 mg/l.
Stability of compounds The peptides were incubated at 37°C for 24 and 48 hours. They were then used to perform MIC determination as previously described.

[5] = tested on: C. auris isolates 728157, CAB-1, CAB-2; assay: Time-kill experiments (CFU counts), peptides combined with fluconazole; assay type: cell-based, Candida auris; settings: for interaction with fluconazole in time-kill: fluconazole 128 mg/L with 0.5X and 1X MIC of peptide, interpreted by White et al.; for log difference compared to single administration, time-kill: C. auris CAB-1
[6] = isolate 728157 (clade I, ERG11 K143R)
[7] = isolate CAB-1 (clade I, ERG11 Y132F)
[8] = isolate CAB-2 (clade I, ERG11 Y132F)
[9] = isolate CAB-3 (clade I, ERG11 Y132F)
[10] = isolate CAB-4 (clade I, ERG11 Y132F)
[11] = isolate CAB-5 (clade I, ERG11 Y132F)
[12] = C. auris 728157, all the concentrations (0.5X, 1X, 2X MIC)
[13] = C. auris 728157, peptide at 0.5X MIC
[14] = C. auris 728157, peptide at 1X and 2X MIC
[15] = C. auris CAB-1, peptide at 1X and 2X MIC
[16] = C. auris CAB-2, peptide at 1X MIC
[17] = C. auris CAB-2, peptide at 2X MIC
[18] = fluconazole combined with 0.5X MIC of peptide, after 12 hours
[19] = C. auris CAB-2, fluconazole combined with 0.5X MIC of peptide, after 12 hours

For `C[C@@H]1[C@H](O)[C@@H](C)/C=C/C=C/C=C/C=C/C=C/C=C/C=C/[C@H](O[C@@H]2O[C@H](C)[C@@H](O)[C@H](N)[C@@H]2O)C[C@@H]2O[C@](O)(C[C@@H](O)C[C@@H](O)[C@H](O)CC[C@@H](O)C[C@@H](O)CC(=O)O[C@H]1C)C[C@H](O)[C@H]2C(=O)O` [AMB, amphotericin], the MIC [1, 6] was 0.5 µg/mL (≈ 0.541 µM), the MIC [1, 7] was 1 µg/mL (≈ 1.08 µM) and the MIC [1, 8] was 1 µg/mL (≈ 1.08 µM). For the same molecule, the MIC [1, 9] was 1 µg/mL (≈ 1.08 µM), the MIC [1, 10] was 1 µg/mL (≈ 1.08 µM) and the MIC [1, 11] was 1 µg/mL (≈ 1.08 µM).

In the case of `OC(Cn1cncn1)(Cn1cncn1)c1ccc(F)cc1F` [FLU, fluconazole], the MIC [1, 6] is reported as over 128 µg/mL, the MIC [1, 7] is reported as 64 µg/mL (≈ 209 µM) and the MIC [1, 11] is reported as 64 µg/mL (≈ 209 µM).

Molecule anidulafungin [reference compound] has an MIC [2, 6] of 0.25 µg/mL, an MIC [2, 7] of 0.5 µg/mL and an MIC [2, 8] of 0.25 µg/mL. It also gave an MIC [2, 9] of 0.25 µg/mL, an MIC [2, 10] of 0.25 µg/mL and an MIC [2, 11] of 0.25 µg/mL.

For `CCCCCCCCCCCCCC(=O)N[C@@H](Cc1c[nH]c2ccccc12)C(=O)N[C@@H](CCCNC(=N)N)C(=O)N[C@@H](CCCNC(=N)N)C(N)=O` [WR, C14-WRR-NH2] (Myristoyl-Trp-Arg-Arg-NH2), the “hours of treatment after which P <0.05 compared to control (growth curve)” value [3, 12] was 9 h, the “delay of the start of growth compared to the control” value (from here on “delay … compared to the control”) [3, 13] was 22 h and the growth [3, 14] was “completely inhibited”. For the same molecule, the “hours of treatment after which P <0.05 compared to control (growth curve)” value ([3]; C. auris CAB-1, all the concentrations (0.5X, 1X, 2X MIC)) was 9 h, the growth [3, 15] was “completely inhibited” and the “hours of treatment after which P <0.05 compared to control (growth curve)” value ([3]; C. auris CAB-2, all the concentrations (0.5X, 1X, 2X MIC)) was 8 h. The “delay … compared to the control” value [3, 16] was 16 h, the growth [3, 17] was “completely inhibited” and the “growth after 24 hours compared to the control” value ([3]; peptide at 0.5X MIC, ANOVA, P <0.05) was “statistically significant reduction of growth”. For the same molecule, the MIC [2, 6] was 8 µg/mL (≈ 11 µM), the MIC [2, 7] was 8 µg/mL (≈ 11 µM) and the MIC [2, 8] was 8 µg/mL (≈ 11 µM). The MIC [2, 9] was 8 µg/mL (≈ 11 µM), the MIC [2, 10] was 8 µg/mL (≈ 11 µM) and the MIC [2, 11] was 8 µg/mL (≈ 11 µM). The MIC values [2] was 8 µg/mL, the MIC values ([2]; 8 mg/L expressed in µM) was 8.4 µM and the “MIC after pre-incubation of the peptide (stability)” value [4] was 8 µg/mL. For the same molecule, the “interaction with fluconazole in time-kill” value ([5]; C. auris 728157) was “additive effect”, the “log difference compared to single administration, time-kill” value [5, 18] was 2.96 log and the “log difference, time-kill” value [5, 19] was 1.69 log.

In the case of `CCCCCCCCCCCCCC(=O)N[C@@H](CCCC)C(=O)N[C@@H](CCCNC(=N)N)C(=O)N[C@@H](CCCNC(=N)N)C(N)=O` [NeI, C14-NleRR-NH2] (Myristoyl-[Nle]-Arg-Arg-NH2), the “hours of treatment after which P <0.05 compared to control (growth curve)” value [3, 12] is reported as 8 h, the “delay … compared to the control” value [3, 13] is reported as 16 h and the growth [3, 14] is reported as “completely inhibited”. The “hours of treatment after which P <0.05 compared to control (growth curve)” value ([3]; C. auris CAB-1, 1X and 2X MIC concentrations) was 8 h, the growth [3, 15] was “completely inhibited” and the “hours of treatment after which P <0.05 compared to control (growth curve)” value ([3]; C. auris CAB-2, 1X and 2X MIC concentrations) was 7 h. For the same molecule, the “delay … compared to the control” value [3, 16] was 14 h, the growth [3, 17] was “completely inhibited” and the MIC [2, 6] was 8 µg/mL (≈ 12.3 µM). For the same molecule, the MIC [2, 7] was 8 µg/mL (≈ 12.3 µM), the MIC [2, 8] was 8 µg/mL (≈ 12.3 µM) and the MIC [2, 9] was 8 µg/mL (≈ 12.3 µM). For the same molecule, the MIC [2, 10] was 8 µg/mL (≈ 12.3 µM), the MIC [2, 11] was 8 µg/mL (≈ 12.3 µM) and the MIC values [2] was 8 µg/mL. For the same molecule, the MIC values ([2]; 8 mg/L expressed in µM) was 9 µM, the “MIC after pre-incubation of the peptide (stability)” value [4] was 8 µg/mL and the “interaction with fluconazole in time-kill” value ([5]; C. auris 728157) was “synergistic effect”. For the same molecule, the “log difference, time-kill” value ([5]; C. auris 728157, fluconazole (128 mg/L) in combination with 0.5X and 1X MIC of peptide, at 32 hours) was 3.10 log, the “log difference, time-kill” value ([5]; C. auris 728157, fluconazole (128 mg/L) in combination with 0.5X and 1X MIC of peptide, at 48 hours) was 3.53 log and the “log difference compared to single administration, time-kill” value [5, 18] was 2.19 log. The “log difference, time-kill” value [5, 19] was 1.19 log.
